Counter-ions that a name gives are not always drawn.
These compounds were tested against T1, recombinant human baculovirus-expressed GST-tagged FASN (Homo sapiens, UniProt P49327) (assay: FASN enzyme activity assay, fluorescence-based detection of CoA with CPM). Conditions: 5 nM FASN, 150 μM NADPH, 10 μM acetyl-CoA, 25 μM malonyl-CoA, 90 minutes incubation; read-out: IC50 data for Additional Compounds of Formulae I-V(a): Activity.
T1 construct: GST
Type: biochemical
How it was run: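 CoA product reacted with thiol-reactive CPM (diluted to 50 μM in 70% ethanol), read at 390/530 nm after 30 min. Preceding reaction: 90 min, 5 nM recombinant GST-FASN, 150 μM NADPH, 10 μM acetyl-CoA, 25 μM malonyl-CoA, pH 7.5 HEPES, 0.5% DMSO. IC50s fitted by nonlinear sigmoidal regression.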

T1 sequence (P49327 whole entry): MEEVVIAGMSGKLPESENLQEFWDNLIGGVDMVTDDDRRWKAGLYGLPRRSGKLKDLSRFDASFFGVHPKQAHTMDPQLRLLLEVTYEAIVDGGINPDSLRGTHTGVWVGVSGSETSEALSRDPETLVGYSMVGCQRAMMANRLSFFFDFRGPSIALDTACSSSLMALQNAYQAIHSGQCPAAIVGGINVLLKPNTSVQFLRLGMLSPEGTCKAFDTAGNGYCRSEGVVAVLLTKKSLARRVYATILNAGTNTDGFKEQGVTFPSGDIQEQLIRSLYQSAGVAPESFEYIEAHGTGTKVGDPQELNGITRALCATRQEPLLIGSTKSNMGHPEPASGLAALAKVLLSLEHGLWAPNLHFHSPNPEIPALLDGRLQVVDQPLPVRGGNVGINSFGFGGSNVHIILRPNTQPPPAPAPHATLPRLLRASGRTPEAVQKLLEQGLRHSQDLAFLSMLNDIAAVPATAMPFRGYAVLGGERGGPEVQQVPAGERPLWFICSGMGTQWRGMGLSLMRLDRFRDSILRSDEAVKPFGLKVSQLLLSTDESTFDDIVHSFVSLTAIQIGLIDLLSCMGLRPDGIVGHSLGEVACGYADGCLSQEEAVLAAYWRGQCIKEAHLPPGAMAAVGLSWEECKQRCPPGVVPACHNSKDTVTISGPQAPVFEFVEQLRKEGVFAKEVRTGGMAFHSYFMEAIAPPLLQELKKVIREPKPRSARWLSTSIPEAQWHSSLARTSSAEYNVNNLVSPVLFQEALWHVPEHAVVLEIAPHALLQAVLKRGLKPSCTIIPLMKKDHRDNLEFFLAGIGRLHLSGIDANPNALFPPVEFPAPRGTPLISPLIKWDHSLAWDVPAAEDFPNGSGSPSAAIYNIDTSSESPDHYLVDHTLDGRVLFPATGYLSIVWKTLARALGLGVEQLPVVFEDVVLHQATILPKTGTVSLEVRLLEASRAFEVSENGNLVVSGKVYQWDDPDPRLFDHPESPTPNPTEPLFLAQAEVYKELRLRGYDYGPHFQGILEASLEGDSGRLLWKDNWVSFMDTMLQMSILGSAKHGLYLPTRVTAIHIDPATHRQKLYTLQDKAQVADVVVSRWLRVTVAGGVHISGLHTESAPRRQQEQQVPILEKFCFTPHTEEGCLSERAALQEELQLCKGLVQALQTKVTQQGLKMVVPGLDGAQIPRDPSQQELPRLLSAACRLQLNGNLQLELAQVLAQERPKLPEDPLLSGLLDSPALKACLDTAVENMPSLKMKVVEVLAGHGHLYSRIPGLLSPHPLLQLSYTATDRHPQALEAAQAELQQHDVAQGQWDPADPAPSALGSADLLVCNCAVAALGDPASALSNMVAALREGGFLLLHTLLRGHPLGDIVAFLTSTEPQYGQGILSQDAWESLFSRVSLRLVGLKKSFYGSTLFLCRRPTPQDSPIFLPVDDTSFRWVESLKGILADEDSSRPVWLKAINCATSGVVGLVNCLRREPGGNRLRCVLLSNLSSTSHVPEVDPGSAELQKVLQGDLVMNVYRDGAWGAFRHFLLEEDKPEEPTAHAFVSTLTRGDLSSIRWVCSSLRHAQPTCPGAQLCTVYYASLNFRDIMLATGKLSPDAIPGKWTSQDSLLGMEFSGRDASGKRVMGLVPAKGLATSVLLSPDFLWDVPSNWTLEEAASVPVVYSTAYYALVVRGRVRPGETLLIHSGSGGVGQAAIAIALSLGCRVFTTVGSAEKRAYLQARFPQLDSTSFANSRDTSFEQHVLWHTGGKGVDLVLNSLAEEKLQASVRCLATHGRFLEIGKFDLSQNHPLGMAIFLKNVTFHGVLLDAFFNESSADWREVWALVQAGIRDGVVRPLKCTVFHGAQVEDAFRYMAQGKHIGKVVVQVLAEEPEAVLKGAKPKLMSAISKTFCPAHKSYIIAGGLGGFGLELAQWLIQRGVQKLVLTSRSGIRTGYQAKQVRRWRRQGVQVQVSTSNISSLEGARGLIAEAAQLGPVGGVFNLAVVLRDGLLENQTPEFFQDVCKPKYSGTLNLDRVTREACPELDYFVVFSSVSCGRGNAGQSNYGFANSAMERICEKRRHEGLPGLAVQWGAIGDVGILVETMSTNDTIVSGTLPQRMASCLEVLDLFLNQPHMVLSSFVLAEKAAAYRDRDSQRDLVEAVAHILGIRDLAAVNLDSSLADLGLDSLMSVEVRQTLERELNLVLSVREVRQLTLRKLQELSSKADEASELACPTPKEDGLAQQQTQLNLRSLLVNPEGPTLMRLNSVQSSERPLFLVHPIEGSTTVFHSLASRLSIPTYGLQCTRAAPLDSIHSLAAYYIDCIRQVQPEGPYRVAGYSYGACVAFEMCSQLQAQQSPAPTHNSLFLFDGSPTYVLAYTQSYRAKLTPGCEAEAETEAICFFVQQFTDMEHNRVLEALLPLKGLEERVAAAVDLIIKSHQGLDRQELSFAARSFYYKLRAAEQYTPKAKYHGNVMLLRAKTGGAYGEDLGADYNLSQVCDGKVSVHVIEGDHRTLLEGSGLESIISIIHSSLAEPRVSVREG

IC50 | SMILES
0.001 to 0.099 µM | Cc1c(-c2ccc(OC3CCN(C(=O)CN)CC3)cc2)ccc2cccnc12 [Example 609, 2-Amino-1-[4-[4-(8-methyl-7-quinolyl)phenoxy]-1-piperidyl]ethanone, 2HCl]
1 to 10 µM | CCNC(=O)N1CCC(Oc2ccc(-c3ccc4ccc(O)nc4c3C)cc2)CC1 [Example 529, N-Ethyl-4-[4-(2-hydroxy-8-methyl-7-quinolyl)phenoxy]piperidine-1-carboxamide]

Same assay, conditions: 5 nM FASN, 150 μM NADPH, 10 μM acetyl-CoA, 25 μM malonyl-CoA, 90 minutes incubation; read-out: IC50 data for Compounds of Formulae I-V/V(a): Activity

IC50 | SMILES
0.001 to 0.099 µM | O=C([C@H]1CCCO1)N1CCC(Oc2ccc(-c3ccc4cccnc4c3C3CC3)cc2)CC1 [Example 475, [4-[4-(8-Cyclopropyl-7-quinolyl)phenoxy]-1-piperidyl]-[(2R)-tetrahydrofuran-2-yl]methanone, HCl]
1 to 10 µM | O=C(C1CC1)N1CCC(Oc2ccc(-c3cc4ccccc4nc3Cl)cc2)CC1 [Example 17, {4-[4-(2-Chloroquinolin-3-yl)-phenoxy]-piperidin-1-yl}-cyclopropyl-methanone]
1 to 10 µM | CS(=O)(=O)N1CCC(Oc2ccc(-c3cnc4ccccc4c3)cc2)CC1 [Example 162, 3-[4-(1-Methanesulfonyl-piperidin-4-yloxy)-phenyl]-quinoline]
0.001 to 0.099 µM | O=C([C@H]1CCCO1)N1CCC(Oc2ccc(-c3ccc4scnc4c3)cc2)CC1 [Example 267, [4-(4-Benzothiazol-5-yl-phenoxy)-piperidin-1-yl]-(R)-tetrahydrofuran-2-yl-methanone, TFA salt]
1 to 10 µM | CC(C)C(=O)N1CCC(Oc2ccc(-c3ccc4cccnc4c3)nc2)CC1 [Example 145, 2-Methyl-1-[4-(6-quinolin-7-yl-pyridin-3-yloxy)-piperidin-1-yl]-propan-1-one, 2HCl]
1 to 10 µM | COc1cc(-c2cnc3ccccc3c2)ccc1OC1CCN(C(=O)C2CC2)CC1 [Example 198, Cyclopropyl-[4-(2-methoxy-4-quinolin-3-yl-phenoxy)-piperidin-1-yl]-methanone]
1 to 10 µM | CCC(=O)N1CCC(Oc2ccc(-c3ccnc(Nc4ccccc4)c3)cc2)CC1 [Example 404, 1-{4-[4-(2-Phenylaminopyridin-4-yl)-phenoxy]-piperidin-1-yl}-propan-1-one]
1 to 10 µM | Cc1ccc2ccc(-c3ccc(OC4CCN(C(=O)C5CCC5)CC4)cc3)c(F)c2n1 [Example 27, Cyclobutyl-{4-[4-(8-fluoro-2-methylquinolin-7-yl)-phenoxy]-piperidin-1-yl}-methanone]
1 to 10 µM | CCC(=O)N1CCC(Oc2ccc(-c3ccc4cnc(OC)cc4c3)cc2)CC1 [Example 415, 1-{4-[4-(3-Methoxyisoquinolin-6-yl)-phenoxy]-piperidin-1-yl}-propan-1-one]
1 to 10 µM | O=C(C1CC1)N1CCC(Oc2ccc(-c3cnc4ccccc4c3)nc2)CC1 [Example 142, Cyclopropyl-[4-(6-quinolin-3-yl-pyridin-3-yloxy)-piperidin-1-yl]-methanone, 2HCl]
0.1 to 0.999 µM | CCC(=O)N1CCC(Oc2ccc(-c3cnc4cc(C)ccc4c3)cc2)CC1 [Example 63, 1-{4-[4-(7-Methylquinolin-3-yl)-phenoxy]-piperidin-1-yl}-propan-1-one]
1 to 10 µM | O=C(C1CC(F)(F)C1)N1CCC(Oc2ccc(-c3cnc4ccccc4c3)cc2)CC1 [Example 119, (3,3-Difluorocyclobutyl)-[4-(4-quinolin-3-yl-phenoxy)-piperidin-1-yl]-methanone]
0.001 to 0.099 µM | CC(C)Oc1c(-c2ccc(OC3CCN(C(=O)[C@H]4CCCO4)CC3)cc2)ccc2cccnc12 [Example 180, {4-[4-(8-Isopropoxyquinolin-7-yl)-phenoxy]-piperidin-1-yl}-(R)-tetrahydrofuran-2-yl-methanone, HCl]
0.1 to 0.999 µM | O=C(C1CC1)N1CCC(Oc2ccc(-c3ccc4c(Cl)ccnc4c3)cc2)CC1 [Example 258, {4-[4-(4-Chloroquinolin-7-yl)-phenoxy]-piperidin-1-yl}-cyclopropyl-methanone, TFA salt]
0.001 to 0.099 µM | O=C(C1CC1)N1CCC(Oc2ccc(-c3cnc4ccccc4c3)cc2)CC1 [Example 100, Cyclopropyl-[4-(4-quinolin-3-yl-phenoxy)-piperidin-1-yl]-methanone,HCl]
0.001 to 0.099 µM | CCC(=O)N1CCC(Oc2ccc(-c3ccc4cnccc4c3)cc2)CC1 [Example 1, 1-[4-(4-Isoquinolin-6-yl-phenoxy)-piperidin-1-yl]-propan-1-one]
0.001 to 0.099 µM | Cc1cccc2cc(-c3ccc(OC4CCN(C(=O)[C@H]5CCCO5)CC4)cc3)cnc12 [Example 488, {4-[4-(8-Methylquinolin-3-yl)-phenoxy]-piperidin-1-yl}-(R)-tetrahydro-furan-2-yl-methanone]
0.1 to 0.999 µM | O=C(C1CCCC1)N1CCC(Oc2ccc(-c3cnc4ccccc4c3)cc2)CC1 [Example 102, Cyclopentyl-[4-(4-quinolin-3-yl-phenoxy)-piperidin-1-yl]-methanone, 2HCl]
0.1 to 0.999 µM | O=C(C1CC1)N1CCC(Oc2ccc(-c3ccc4ccccc4n3)cc2)CC1 [Example 39, Cyclopropyl-[4-(4-quinolin-2-yl-phenoxy)-piperidin-1-yl]-methanone]
0.001 to 0.099 µM | Cc1cc(-c2ccc(OC3CCN(C(=O)[C@H]4CCCO4)CC3)cc2)c2cccnc2c1 [Example 353, (R)-(4-(4-(7-Methylquinolin-5-yl)phenoxy)piperidin-1-yl)(tetrahydrofuran-2-yl)methanone]
0.001 to 0.099 µM | O=C(N1CCC(Oc2ccc(-c3cnc4ccccc4c3Cl)cc2)CC1)N1CCCO1 [Example 76, {4-[4-(4-Chloroquinolin-3-yl)-phenoxy]-piperidin-1-yl}-isoxazolidin-2-yl-methanone]
1 to 10 µM | O=C(C1CC1)N1CCC(Oc2ccc(-c3cc(F)cc(OCc4ccccc4)c3)cc2)CC1 [Example 507, [4-(5′-Benzyloxy-3′-fluorobiphenyl-4-yloxy)-piperidin-1-yl]-cyclopropyl-methanone]
0.1 to 0.999 µM | CO[C@H](C)C(=O)N1CCC(Oc2ccc(-c3cnc4ccccc4c3)cc2)CC1 [Example 108, (R)-2-Methoxy-1-[4-(4-quinolin-3-yl-phenoxy)-piperidin-1-yl]-propan-1-one, 2HCl]
1 to 10 µM | Cc1c(-c2ccc(O[C@@H]3CCN4C(=O)CC[C@H]4C3)cc2)ccc2cccnc12 (racemic) [Example 356, (±)-(7R,8aS)-7-(4-(8-Methylquinolin-7-yl)phenoxy)hexahydroindolizin-3(2H)-one]
1 to 10 µM | CC(C)C(=O)N1CCC(Sc2ccc(-c3cnc4ccccc4c3)cc2)CC1 [Example 522, 2-Methyl-1-(4-((4-(quinolin-3-yl)phenyl)thio)piperidin-1-yl)propan-1-one, HCl]
0.1 to 0.999 µM | Cc1cccc2ncc(-c3ccc(OC4CCN(C(=O)C5CC5)CC4)cc3)cc12 [Example 461, Cyclopropyl-{4-[4-(5-methyl-quinolin-3-yl)-phenoxy]-piperidin-1-yl}-methanone, HCl]
1 to 10 µM | CC(C)C(=O)N1CCC(S(=O)(=O)c2ccc(-c3ccc4cnccc4c3)cc2)CC1 [Example 514, 1-[4-(4-Isoquinolin-6-yl-benzenesulfonyl)-piperidin-1-yl]-2-methyl-propan-1-one]
0.001 to 0.099 µM | O=C([C@H]1CCCO1)N1CCC(Oc2ccc(-c3ccc4c(Cl)ccnc4c3)cc2)CC1 [Example 257, {4-[4-(4-Chloroquinolin-7-yl)-phenoxy]-piperidin-1-yl}-(R)-tetrahydro-furan-2-yl-methanone, TFA salt]

Source: patent publication US9902696B2, “1,4-substituted piperidine derivatives” (Cephalon, Inc., priority 2015, dated 2018)
